Results as given in patent US20020146441A1, “Selection method for cosmetic auxiliaries” (priority 2000, published 2002).

How the values were obtained:
[1] = O/W emulsion, substantivity on skin model (water resistance, watering test); type: physicochemical, sheep; details: amount found after 20 min watering relative to unwatered sample, isopropanol extract, GC, converted to the logarithm
Experimental: (§1) The amounts of the cosmetic auxiliaries found in the phase to be cared for are compared with the amount found in the cosmetic phase (relative partition parameters). These values are converted to the logarithm and entered as activity values into the regression table (Table 1). Using various methods, regression against the COSMO-RS and other descriptors (e.g. clogP and boiling point) are carried out, and the best correlation according to the validation is selected. In all of the regression equations belonging to the examples, cosmetic auxiliaries with a deviation in the regression of more than +/−0.43 log units from the experimental value are defined as outliers. […] In the next step, the COSMO-RS regression equation is linked to the regression table which contains all descriptors for all cosmetic auxiliaries. The use of the COSMO-RS regression equation on all cosmetic auxiliaries gives the prediction for the logarithmic relative partition parameters for all cosmetic auxiliaries. These values are then used for the manufacture of cosmetic products. The procedure is analogous in all examples.
(§2) The example reflects the substantivity of a sunscreen emulsion. The emulsion is applied to a skin model (sheep shorn wool, because of the content of wool grease), and the substantivity thereto is tested using a watering test. The emulsion is prepared in the generally customary manner. The UV filters and a mixture of 39 odorants are incorporated in accordance with the formulations. 0.10 g of this emulsion is applied to a section of the skin model 5×10 cm in size. After drying for 30 min, the sample is stirred for 20 min in 4.5 l of water at room temperature. The sample is left to dry for 12 hours and then boiled for 10 min with 60 ml of isopropanol in a closed system. The extract is transferred to a measuring flask and made up to 100 ml. 0.10 g of the emulsion is applied to another section of the skin model. After drying for 12 hours, it is extracted with isopropanol as above. The extracts are injected in equal amounts one after the other into a GC injector, and gas chromatograms are recorded. The amounts of the UV filters and odorants found in the extracts are compared with one another (relative partition parameters). The analytical results are then used mathematically as described above.

[2] = W/O emulsion, substantivity on skin model (water resistance, watering test); type: physicochemical, sheep; details: amount found after 20 min watering relative to unwatered sample, isopropanol extract, GC, converted to the logarithm
Experimental: as §1, §2

Structure (SMILES) | Activity (logarithmic partition parameter for substantivity on a skin model) [1] | Activity (logarithmic partition parameter for substantivity on a skin model) [2]
Cc1ccc(C=C2C(=O)C3(C)CCC2C3(C)C)cc1 (centres unmarked) [Neo Heliopan ® MBC, 4-Methylbenzylidene Camphor] | −0.0966 | −0.2018
CC1CC(OC(=O)c2ccccc2O)CC(C)(C)C1 (centres unmarked) [Neo Heliopan ® HMS, Homosalate] | −0.1571 | −0.2733
CCCCCC/C(C=O)=C\c1ccccc1 [Hexylcinnamaldehyde, alpha] | −0.1250 | −0.1399
CC1CCC(C(C)C)C(OC(=O)c2ccccc2N)C1 (centres unmarked) [Neo Heliopan ® MA, Menthyl anthranilate] | −0.1314 | −0.2300
COc1ccc(C(=O)c2ccccc2)c(O)c1 [Neo Heliopan ® BB, Benzophenone-3] | −0.1595 | −0.2689
CC(C)CCOC(=O)c1ccccc1O [Isoamyl salicylate] | −0.0960 | −0.2740
CC(=O)/C=C/C1C(C)=CCCC1(C)C (stereo not drawn) [Ionone alpha] |  | −0.0120
O=C1CCCCCCCCCCCC(=O)OCCO1 [Ethylene brassylate] | 0.0010 | −0.0476
C[C@@H]1CC[C@H]2C(C)(C)[C@H]3C[C@@]12CC[C@@]3(C)O [Cedrol] | −0.0320 | −0.0111
CC(=O)/C=C/C1=C(C)CCCC1(C)C [Ionone, beta] |  | 0.1556
COc1ccc(C(=O)CC(=O)c2ccc(C(C)(C)C)cc2)cc1 [Neo Heliopan ® NH 357] | −0.1922 | −0.1879
COc1ccc(C=CC(=O)OCCC(C)C)cc1 [Neo Heliopan ® E1000, Isoamyl p-Methoxycinnamate] | −0.0762 | −0.2128
C=C1C2CCC(C2)C1(C)C (centres unmarked) [Camphene] |  | −0.2420
O=C(OCc1ccccc1)c1ccccc1O [Benzyl salicylate] | −0.1300 | −0.1480
CC1=CCC2CC1C2(C)C (stereo not drawn) [alpha-Pinene] |  | −0.2470
CC(=O)O[C@]1(C)CC[C@@]23C[C@@H]1C(C)(C)[C@@H]2CC[C@H]3C [Cedryl acetate] | −0.0330 | −0.0170
CC(C=O)Cc1ccc(C(C)(C)C)cc1 (centres unmarked) [Lilial] | −0.1280 | −0.2120
CCCCC(CC)COC(=O)c1ccccc1O (centres unmarked) [Neo Heliopan ® OS, 2-Ethylhexylsalicylate] | −0.1464 | −0.2497
